Experimental data: ChEMBL document CHEMBL4483862, “Open-source discovery of chemical leads for next-generation chemoprotective antimalarials” (2018)

Test system: Plasmodium berghei
Assay: Luciferase/luciferin-expressing antifolate-resistant parasites were used to infect a culture of HepG2 cells that were pre-incubated with compounds. Infected hepatocytes emit light due to the luciferase reaction. Assay results are presented as the percent inhibition of light emission compared to control. […]
Type: functional
Details: sporozoite; for IC90: read-out: LUCIFERASE INFECTION ASSAY - IC90
[1] = read-out: LUCIFERASE INFECTION ASSAY - IC50

SMILES | IC90 [µM] | other results
O=C(Nc1nc2c(-c3ccccc3)c(C(F)(F)F)sc2s1)c1ccc(Cl)cc1 | > 7.52 | IC50 (PBLUC_HILL_SLOPE 7.81, PBLUC_R_SQUARED 0.676, read-out: LUCIFERASE INFECTION ASSAY - IC50): 6.32 µM
CN1C(c2ccc(F)cc2)=CS/C1=C(/C#N)c1nnc(N2CCOCC2)n1-c1ccccc1 | > 10 | IC50 (PBLUC_HILL_SLOPE 2.7, PBLUC_R_SQUARED 0.681, read-out: LUCIFERASE INFECTION ASSAY - IC50): 6.9 µM
N#Cc1ccnc(N2CCN(c3ncnc4scc(-c5ccccc5)c34)CC2)c1 | > 10 | IC50 [1]: > 10 µM
CCC(CC)c1nn(CC(=O)c2cc(C)n(CCOC)c2C)c(=N)s1 | > 10 | IC50 (PBLUC_HILL_SLOPE 8.4, PBLUC_R_SQUARED 0.0548, read-out: LUCIFERASE INFECTION ASSAY - IC50): 9.17 µM
O=C1CSC(=O)N1CCN=Cc1c(O)n(-c2ccc(Cl)cn2)c(=O)c2ccccc12 | > 10 | IC50 [1]: > 10 µM
Cn1c(-c2cccc(C(F)(F)F)c2)cc2c(Nc3cccnc3)nccc21 | > 10 | IC50 (FFLUC_HILL_SLOPE 13.4, FFLUC_R_SQUARED 0.159, PBLUC_HILL_SLOPE 11.7, PBLUC_R_SQUARED 0.342, read-out: LUCIFERASE INFECTION ASSAY - IC50): 9.06 µM
Cc1nc2ccccn2c1C(=O)N/N=C/c1ccccc1O | > 11.2 | IC50 [1]: 10.1 µM
O=C(Nc1ccc(F)cc1F)c1cc(Cl)cc(Cl)c1O | > 10.4 | IC50 (PBLUC_HILL_SLOPE 2.53, PBLUC_R_SQUARED 0.435, read-out: LUCIFERASE INFECTION ASSAY - IC50): 4.75 µM
Cc1ccc(C)c(S(=O)(=O)N2CCN(C(=O)c3[nH]nc4ccccc34)CC2)c1 | 1.72 | IC50 (PBLUC_HILL_SLOPE 2.18, PBLUC_R_SQUARED 0.737, read-out: LUCIFERASE INFECTION ASSAY - IC50): 0.627 µM
Cc1ccc(F)cc1C(=O)Nc1nc2ccccn2c1C(=O)NC1CCCCC1 | 1.12 | IC50 (HEPG2TOX_HILL_SLOPE 1.92, HEPG2TOX_R_SQUARED 0.809, PBLUC_HILL_SLOPE 11.3, PBLUC_R_SQUARED 0.608, read-out: LUCIFERASE INFECTION ASSAY - IC50): 0.921 µM
CCC(C)(C)C1CCC2(CC1)NC(N)=Nc1nc3ccccc3n12 (stereo not given) | 3.31 | IC50 (PBLUC_HILL_SLOPE 13.4, PBLUC_R_SQUARED 0.322, read-out: LUCIFERASE INFECTION ASSAY - IC50): 2.81 µM
Clc1cncc2c1Sc1ccccc1N2 | > 14.1 | IC50 [1]: 14 µM
CC(OC(=O)[C@@H](Nc1ccc(C(F)(F)F)cc1Cl)C(C)C)C(=O)NC(=O)NC1CCCCC1 (stereo not given in full) | 6.57 | IC50 (FFLUC_HILL_SLOPE 12, FFLUC_R_SQUARED 0.576, PBLUC_HILL_SLOPE 4.18, PBLUC_R_SQUARED 0.859, read-out: LUCIFERASE INFECTION ASSAY - IC50): 3.88 µM
COc1ccccc1-c1ccnc2n[nH]c(-c3cc(OC)c(OC)c(OC)c3)c12 | 3.93 | IC50 (HEPG2TOX_HILL_SLOPE 2.69, HEPG2TOX_R_SQUARED 0.93, PBLUC_HILL_SLOPE 7.13, PBLUC_R_SQUARED 0.294, read-out: LUCIFERASE INFECTION ASSAY - IC50): 2.89 µM
O=C(CCc1ccco1)Nc1ccc(-n2nccn2)cc1 | > 10 | IC50 (HEPG2TOX_HILL_SLOPE 10.3, HEPG2TOX_R_SQUARED 0.943, PBLUC_HILL_SLOPE 1.03, PBLUC_R_SQUARED 0.655, read-out: LUCIFERASE INFECTION ASSAY - IC50): 4.85 µM
Cc1cc2c(cc1C)NC(c1ccc(Br)cc1)C1C(=O)CCCC1=N2 (stereo not given) | > 8.31 | IC50 (PBLUC_HILL_SLOPE 1.27, PBLUC_R_SQUARED 0.271, read-out: LUCIFERASE INFECTION ASSAY - IC50): 6.95 µM
Cc1ccc(S(=O)(=O)Nc2ccc(Nc3nccn4c(-c5ccccc5N(C)C)cnc34)cc2)cc1 | > 6.62 | IC50 (PBLUC_HILL_SLOPE 3.26, PBLUC_R_SQUARED 0.262, read-out: LUCIFERASE INFECTION ASSAY - IC50): 3.47 µM
O=C(Cn1ncc(Cl)c(Cl)c1=O)Nc1cc(S(=O)(=O)N2CCOCC2)ccc1Cl | 3.74 | IC50 (HEPG2TOX_HILL_SLOPE 12.1, HEPG2TOX_R_SQUARED 0.84, PBLUC_HILL_SLOPE 14, PBLUC_R_SQUARED 0.266, read-out: LUCIFERASE INFECTION ASSAY - IC50): 3.2 µM
O=C1/C(=C\c2cccnc2)SC(=S)N1Cc1ccncc1 | > 10.5 | IC50 (FFLUC_HILL_SLOPE 1.57, FFLUC_R_SQUARED 0.87, HEPG2TOX_HILL_SLOPE 6.45, HEPG2TOX_R_SQUARED 0.698, PBLUC_HILL_SLOPE 14.6, PBLUC_R_SQUARED 0.23, read-out: LUCIFERASE INFECTION ASSAY - IC50): 10.5 µM
CC(=O)c1c(C)[nH]c(C(=O)Nc2ccc(C)c(S(=O)(=O)Nc3ccc(C)cc3C)c2)c1C | > 10 | IC50 (HEPG2TOX_HILL_SLOPE 7.64, HEPG2TOX_R_SQUARED 0.623, PBLUC_HILL_SLOPE 8.53, PBLUC_R_SQUARED 0.404, read-out: LUCIFERASE INFECTION ASSAY - IC50): 9.43 µM

SMILES | IC90 [µM] | other results
O=C(CSCc1cccs1)Nc1nc(-c2ccccn2)cs1 | 9.38 | IC50 (PBLUC_HILL_SLOPE 22, PBLUC_R_SQUARED 0.337, read-out: LUCIFERASE INFECTION ASSAY - IC50): 8.49 µM
Cc1ccc(C(=O)Nc2nc3ccccn3c2C(=O)NC(C)C)cc1 | > 9.81 | IC50 (PBLUC_HILL_SLOPE 15.2, PBLUC_R_SQUARED 0.478, read-out: LUCIFERASE INFECTION ASSAY - IC50): 8.52 µM
O=C(Nc1ccc(N2CCCC2)cn1)c1cc(Cl)ccn1 | 2.06 | IC50 (PBLUC_HILL_SLOPE 0.363, 0.720, PBLUC_R_SQUARED 0.388, 0.822, read-out: LUCIFERASE INFECTION ASSAY - IC50): 0.119 µM
Cc1ccc(C(=O)Nc2nc3cc4c(cc3s2)OCCO4)s1 | > 10 | IC50 (PBLUC_HILL_SLOPE 9.57, PBLUC_R_SQUARED 0.436, read-out: LUCIFERASE INFECTION ASSAY - IC50): 8.59 µM
CS(=O)(=O)N1CCCC(C(=O)NC(c2ccccc2)C2CCCCC2)C1 (stereo not given) | > 10 | IC50 [1]: > 10 µM
CC(C)(C)c1ccc(C(=O)NCCOc2ccccc2Cl)cc1 | 0.863 | IC50 (FFLUC_HILL_SLOPE 11.3, FFLUC_R_SQUARED 0.0884, PBLUC_HILL_SLOPE 2.08, PBLUC_R_SQUARED 0.74, read-out: LUCIFERASE INFECTION ASSAY - IC50): 0.3 µM
Cc1cc(C)n(CCC(=O)N2CCN(C(c3ccc(F)cc3)c3ccc(F)cc3)CC2)n1 | > 10 | IC50 (HEPG2TOX_HILL_SLOPE 1.37, HEPG2TOX_R_SQUARED 0.338, PBLUC_HILL_SLOPE 18.9, PBLUC_R_SQUARED 0.322, read-out: LUCIFERASE INFECTION ASSAY - IC50): 9.4 µM
CCOCCSc1nc(-c2ccccc2)c(-c2ccccc2)[nH]1 | > 10 | IC50 (HEPG2TOX_HILL_SLOPE 2.32, HEPG2TOX_R_SQUARED 0.811, read-out: LUCIFERASE INFECTION ASSAY - IC50): > 10 µM
c1ccc(-c2nnc(SCc3cn4ccccc4n3)nc2-c2ccccc2)cc1 | > 10 | IC50 [1]: > 10 µM
COc1ccc(Nc2nnc(SC(C)C(=O)Nc3sccc3C(N)=O)s2)cc1 (stereo not given) | > 10 | IC50 [1]: > 10 µM
N#Cc1c(Cl)nsc1NCc1cnn(Cc2ccccc2)c1 | 1.22 | IC50 (FFLUC_HILL_SLOPE 12.9, FFLUC_R_SQUARED 0.244, HEPG2TOX_HILL_SLOPE 2.27, HEPG2TOX_R_SQUARED 0.949, PBLUC_HILL_SLOPE 20.5, PBLUC_R_SQUARED 0.627, read-out: LUCIFERASE INFECTION ASSAY - IC50): 1.1 µM
O=C(Cc1cn2ccsc2n1)NNC(=O)c1cc(Cl)ccc1O | 0.414 | IC50 (HEPG2TOX_HILL_SLOPE 0.838, HEPG2TOX_R_SQUARED 0.788, PBLUC_HILL_SLOPE 20.5, PBLUC_R_SQUARED 0.865, read-out: LUCIFERASE INFECTION ASSAY - IC50): 0.372 µM
CCN(CC)S(=O)(=O)c1cccc(NC(=O)c2sc(Nc3ccc(C)cc3C)c(C(=O)NC(C)COC)c2N)c1 (stereo not given) | > 10 | IC50 (FFLUC_HILL_SLOPE 0.973, FFLUC_R_SQUARED 0.376, read-out: LUCIFERASE INFECTION ASSAY - IC50): > 10 µM
Cc1cc(C)nc(-n2[nH]c3[nH]c(-c4cccc5ccccc45)cc(=O)c3c2=O)n1 | 1.99 | IC50 (HEPG2TOX_HILL_SLOPE 0.872, HEPG2TOX_R_SQUARED 0.686, PBLUC_HILL_SLOPE 1.74, PBLUC_R_SQUARED 0.695, read-out: LUCIFERASE INFECTION ASSAY - IC50): 0.566 µM
O=C(CN1CCN(C(=O)C23CC4CC(CC(C4)C2)C3)CC1)c1ccc[nH]1 | > 10 | IC50 [1]: > 10 µM
O=C(C1CC1)N1CCc2nc(NCc3cccc(Oc4ccccc4)c3)ncc2C1 | 7.02 | IC50 (HEPG2TOX_HILL_SLOPE 1.68, HEPG2TOX_R_SQUARED 0.88, PBLUC_HILL_SLOPE 2.35, PBLUC_R_SQUARED 0.234, read-out: LUCIFERASE INFECTION ASSAY - IC50): 2.75 µM
Cc1nnc(SC2CCCCC2=O)n1C1CCCCC1 (stereo not given) | > 10 | IC50 [1]: > 10 µM
O=C1C(=O)N(Cc2ccncc2)c2ccccc21 | > 13.9 | IC50 (PBLUC_HILL_SLOPE 4.07, PBLUC_R_SQUARED 0.778, read-out: LUCIFERASE INFECTION ASSAY - IC50): 8.1 µM
COc1cccc(-c2cnc(N)c(-c3ccc(O)c(OC)c3)c2)c1 | 7.28 | IC50 (FFLUC_HILL_SLOPE 0.591, FFLUC_R_SQUARED 0.281, PBLUC_HILL_SLOPE 3.73, PBLUC_R_SQUARED 0.478, read-out: LUCIFERASE INFECTION ASSAY - IC50): 4.04 µM
CC(C)(C)CC(C)(C)c1ccc(OCC(O)CNC2CCC(O)CC2)cc1 (stereo not given) | 7.58 | IC50 (HEPG2TOX_HILL_SLOPE 10.5, HEPG2TOX_R_SQUARED 0.116, PBLUC_HILL_SLOPE 3.56, PBLUC_R_SQUARED 0.606, read-out: LUCIFERASE INFECTION ASSAY - IC50): 4.09 µM
